# Test results reported in patent US20220111034A1, “VIRUS COMPOSITIONS” (priority 2019, published 2022).
# Legend:
# JAM-A = assay: FD-based AFM single-virus force spectroscopy on JAM-A-coated model surfaces; format: binding; settings: for change in JAM-A-T3SA− binding or multivalent interactions: 1 mM glycan injected, FIG. 6a-c
# Description: (§1) NHS-PEG27-acetal linkers were used to functionalize AFM tips as described (Gruber. Crosslinkers and Protocols for AFM Tip Functionalization. https://wwwjku.at/institut-fuer-biophysik/forschung/linked, 2018; Wildling et al. Linking of sensor molecules with amino groups to aminofunctionalized AFM tips. Bioconjug. Chem. 2011, vol. 22, 1239-1248). AFM tips (PFQNM-LC and MSCT probes, Bruker) were immersed in chloroform for 10 min, rinsed with ethanol, dried with a stream of filtered nitrogen, cleaned for 10 min using an ultraviolet radiation and ozone (UV-0) cleaner (Jetlight), and immersed overnight in an ethanolamine solution (3.3 g of ethanolamine hydrochloride in 6.6 mL of DMSO). The cantilevers were washed three times with DMSO, and two times with ethanol and dried with nitrogen. To ensure a low grafting density of the linker on the AFM tip, 1 mg of acetal-PEG27-NHS was diluted in 0.5 mL of chloroform with 30 μL of […] (Gruber, supra; Wildling et al., supra). Ethanolamine-coated cantilevers were immersed for 2 h in this solution, washed three times with chloroform, and dried with nitrogen. Cantilevers were then immersed for 10 min in 1% citric acid in milliQ water, washed three times with milliQ water, and dried with nitrogen. Virus solution (80 μL at ˜10^8 to 10^9 particles mL^−1) was pipetted onto the tips placed on Parafilm (Bemis NA) in a small plastic dish stored within an icebox. A freshly prepared solution of NaCNBH3 (2 μL at ˜6% wt. in 0.1 M NaOH(aq)) was gently mixed into the virus solution, and the cantilever chips were gently positioned with the cantilevers extending into the virus drop. The icebox was incubated at 4° C. for 1 h. Then, 5 μL of 1 M ethanolamine solution (pH 8) was gently mixed into the drop to quench the reaction. […]
# His6-tagged JAM-A (Bio-Connect Life Science) was immobilized using NTA-His6 binding chemistry, as described (Dupres et al. 2005, supra; Dufrêne. Life at the nanoscale: atomic force microscopy of live cells. Pan Stanford Publishing, 2011). […] The thickness was measured as described for sialic-acid-coated model surfaces.
# AFM Nanoscope Multimode 8 (Bruker) was used (Nanoscope software v9.1) to conduct FD-based AFM. Virus-functionalized MSCT-D probes (with spring constants calculated using thermal tune, ranging from 0.024 to 0.043 N m^−1) (Butt & Jaschke. Calculation of thermal noise in atomic-force microscopy. Nanotechnol. 1995, vol. 6, 1-7) were used to record force curves from 5×5 μm arrays in the force-volume (contact) mode. […]
# σ1-α-SA complex = molecular target: T1, σ1-α-SA complex (Reovirus type 3, UniProt P03528); assay: FD-based AFM single-virus force spectroscopy on α-SA-coated model surfaces; format: binding; settings: injection of 1 mM free glycan, FIG. 3b
# T1 construct: made in house; host or cells: L929 cells (virus-infected)
# T1 sequence (P03528 1-455): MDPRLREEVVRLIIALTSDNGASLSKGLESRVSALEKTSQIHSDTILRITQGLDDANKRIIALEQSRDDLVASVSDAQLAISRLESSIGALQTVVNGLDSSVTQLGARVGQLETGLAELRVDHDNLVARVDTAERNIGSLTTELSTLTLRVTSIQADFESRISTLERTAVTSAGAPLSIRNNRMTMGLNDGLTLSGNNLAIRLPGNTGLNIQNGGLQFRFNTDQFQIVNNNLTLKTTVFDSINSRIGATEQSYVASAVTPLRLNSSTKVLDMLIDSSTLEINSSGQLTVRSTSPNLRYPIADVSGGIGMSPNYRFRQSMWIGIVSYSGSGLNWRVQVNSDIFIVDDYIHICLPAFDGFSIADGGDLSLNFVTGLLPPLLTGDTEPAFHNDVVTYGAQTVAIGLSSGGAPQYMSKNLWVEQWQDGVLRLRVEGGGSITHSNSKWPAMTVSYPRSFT
# Description: as §1, with “reaction. The icebox was incubated at 4° C. for an additional 10 min, and the cantilever chips were removed, washed three times in ice-cold PBS, and stored in individual wells of a multiwell dish containing 2 mL of ice-cold virus buffer (150 mM NaCl, 15 mM MgCl2, 10 mM Tris, pH adjusted to 7.4) per well until used in AFM experiments.” for “reaction.”
compound,measurement,setting,value
"CC(=O)N[C@H]1[C@H](O[C@H]2[C@@H](O)[C@@H](CO)O[C@@H](O[C@H]3[C@H](O)[C@@H](O)C(O)O[C@@H]3CO)[C@@H]2O)O[C@H](CO)[C@@H](O[C@@H]2O[C@H](CO)[C@H](O)[C@H](O)[C@H]2O)[C@@H]1O (mixture of isomers) [LNnT, lacto-N-neotetraose, reference compound]",effect on the overall binding of T3SA+ to JAM-A,"JAM-A; 1 mM glycan, FIG. 5d",had no effect
same,competition with T3SA+ binding to SA,σ1-α-SA complex,but not LNnT strongly competed
sialyl-lacto-N-tetraose a [LSTa],change in JAM-A-T3SA− binding or multivalent interactions,JAM-A,does not induce any change
same,competition with T3SA+ binding to SA,σ1-α-SA complex,strongly competed
"CC(=O)N[C@H]1[C@H]([C@H](O)[C@H](O)CO)OC(O)(C(=O)O)C[C@@H]1O (stereo partly shown) [Neu5Ac, N-acetylneuraminic acid]",change in T3SA+ISVP-JAM-A multivalent binding behavior,"JAM-A; 1 mM free glycan, FIG. 16",does not induce any change
same,change in JAM-A-T3SA− binding or multivalent interactions,JAM-A,does not induce any change
same,competition with T3SA+ binding to SA,σ1-α-SA complex,strongly competed
